Assay results reported in publication PMC12561670, “Isolation of Dual-Active Drugs with Anticancer and Antibacterial Activities That Target Both Tubulin and FtsZ” (Antibiotics, 2025).
In brackets after ≈: the same amount, converted by molar mass.

Key:
[1] = system: S. aureus (ATCC 6538); assay: MIC, broth microdilution; format: cell-based; details: Staphylococcus aureus, ATCC6538; broth microdilution, 18 h, 37 °C; read-out: MIC S. aureus (ATCC 6538)
[2] = system: B. subtilis (CICC 21164); assay: MIC, broth microdilution; format: cell-based; details: Bacillus subtilis; broth microdilution, 18 h, 37 °C; read-out: MIC B. subtilis (CICC 21164)
Description: MIC assays were carried out by employing the broth microdilution method in accordance with Clinical and Laboratory Standards Institute (CLSI) guidelines. E. coli BNCC337004, S. aureus BNCC336423, P. aeruginosa BNCC337099, and B. subtilis CICC 21164 were applied for the MIC detection. Mueller–Hinton broth (MHB) was used in bacterial culture, and log-phase bacteria were diluted into a 0.5 McFarland Standard suspension, which was then diluted 1000 times again. Subsequently, 100 μL of the obtained bacterial suspension was placed into each well of 96-well microtiter plates, along with 2-fold serial dilutions of compounds (512, 256, 128, 64, 32, 16, 8, 4, 2, 1, 0.5, 0 μM). The microtiter plates were incubated aerobically for 18 h at 37 °C. The MIC was defined as the lowest drug concentration at which no visible turbidity was observed. All experiments are conducted in three parallel.

[3] = system: E. coli (ATCC 8739); assay: MIC, broth microdilution; format: cell-based; details: Escherichia coli, ATCC8739; broth microdilution, 18 h, 37 °C; read-out: MIC E. coli (ATCC 8739)
[4] = system: S. aureus BNCC336423; assay: Time–killing curve; format: cell-based; details: S. aureus BNCC336423, concentrations of 4× the MIC or greater
Description: S. aureus BNCC336423 was employed for the time–killing curve study. […] Meanwhile, DMSO with an equivalent volume was added to the vehicle control tube. The cultures were then subjected to shaking incubation at 37 °C. Subsequently, cultures were taken out at predetermined time intervals (0, 1, 2, 4, 6, 8, and 24 h), centrifuged at 16,000×g for 3 min, and diluted to an appropriate multiple. These diluted samples were then plated onto Tryptic Soy Agar (TSA) plates for enumeration. Following a 24 h incubation period at 37 °C, colonies on the TSA plates were counted for the CFU/mL, thereby providing insights into the time-dependent bactericidal activity of the tested compounds.

[5] = system: E. coli; assay: In vivo antibacterial activity, mouse peritoneal infection; design: species or system CD-1 male mice
Excerpt: SPF grade CD-1 male mice weighing 30 ± 3 g were purchased from Shanghai Slake Experimental Animal Co., Ltd. (Shanghai, China). […] Immediately following this, the mice were intraperitoneally injected with the test compounds. Each experimental group consisted of five mice, with each compound being tested at two distinct concentration gradients (determined based on the minimum inhibitory concentration, MIC). A separate group received physiological saline as a negative control. The subsequent assessment focused on evaluating the therapeutic potential of these drugs against bacterial infections. On the first and third days post-administration, 2 mL of sterile physiological saline was injected into the peritoneal cavity of each mouse. After a gentle two-minute dilution under sterile conditions, the abdominal fluid was extracted for bacterial enumeration using the plate counting method. Furthermore, the clinical manifestations of each mouse group, encompassing mental status, appetite, and other relevant parameters, were meticulously observed over a seven-day period. On the seventh day, the mice were euthanized, and a thorough macroscopic examination was conducted to assess the pathological changes in various vital organs.

[6] = system: P. aeruginosa (DSM 939); assay: MIC, broth microdilution; format: cell-based; details: Pseudomonas aeruginosa, DSM939; broth microdilution, 18 h, 37 °C; read-out: MIC P. aeruginosa (DSM 939)
[7] = molecular target: T1, S. aureus FtsZ (Staphylococcus aureus, UniProt P0A031); assay: FtsZ polymerization assay (A340); format: biochemical
T1 construct: His tag; made in house; host or cells: E. coli BL21(DE3)
T1 sequence (P0A031 1-390): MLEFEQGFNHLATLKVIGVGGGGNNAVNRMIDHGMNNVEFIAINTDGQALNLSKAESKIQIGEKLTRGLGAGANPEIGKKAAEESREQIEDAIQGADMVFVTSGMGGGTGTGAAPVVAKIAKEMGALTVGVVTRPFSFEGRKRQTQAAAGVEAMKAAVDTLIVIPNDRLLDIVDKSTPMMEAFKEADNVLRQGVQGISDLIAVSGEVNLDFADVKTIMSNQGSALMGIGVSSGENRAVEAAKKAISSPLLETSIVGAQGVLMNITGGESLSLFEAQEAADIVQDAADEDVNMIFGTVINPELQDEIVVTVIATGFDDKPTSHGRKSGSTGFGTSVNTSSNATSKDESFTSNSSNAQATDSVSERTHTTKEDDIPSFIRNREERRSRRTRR
Description: The effect of compounds on S. aureus FtsZ polymerization was monitored by employing a microtiter plate-based spectrophotometric assay method, and the reactions were conducted in flat-bottomed 96-well microtiter plates. The degree of FtsZ polymerization was reflected by the corresponding changes in absorbance at 340 nm (A340). […] The polymerization reaction began immediately once 4 mM GTP was added, and then the polymerization was continuously monitored at 25 °C for 60 min by measuring A340 in BioTek-Synergy4 multifunctional enzyme-linked immunosorbent assay (ELISA) reader.

CC(C)(C)c1[nH]cnc1/C=c1\[nH]c(=O)/c(=C/c2ccccc2)[nH]c1=O [Compound 23, Plinabulin]
MIC [1]: 8 µM (≈ 2.69 µg/mL) | MIC [2]: 8 µM (≈ 2.69 µg/mL) | MIC [3]: 64 µM (≈ 21.5 µg/mL) | logs of kill in time–kill [4]: 3 logs | bacterial count of peritoneal fluid ([5]; mice i.p. E. coli, i.p. compound, days 1 and 3): substantially mitigated | clinical presentation of infected mice ([5]; seven-day observation): exhibited vitality, maintained a healthy appetite | MIC [6]: 32 µM (≈ 10.8 µg/mL) | effect on FtsZ polymerization (A340) ([7]; 50 μM compound, 5 µM FtsZ, 4 mM GTP, vs DMSO): remarkable promoting effect on FtsZ polymerization | effect on FtsZ polymerization at different concentrations ([7]; 5, 10, 20 and 50 μM, initial 10 min): markedly accelerated FtsZ polymerization
